# Assays:
# [1] = system: mouse; conditions: Subchronic oral toxicity in rodents, b6c3f1, Feed, dose end: 13 week, group: systemic, systemic / in life observation / body weight / body weight gain
# [2] = system: rat; conditions: Subchronic oral toxicity in rodents, fischer, Feed, dose end: 13 week, group: systemic
# [3] = system: rat; conditions: Prenatal developmental toxicity study; sprague dawley; Oral; Gavage/Intubation; dose end: 20 GD; group: maternal; systemic / in life observation / body weight / body weight gain
# [4] = system: rat; conditions: Chronic toxicity, sprague dawley, Oral, Gavage/Intubation, dose end: 53 week, group: systemic
# [5] = system: dog; conditions: Chronic toxicity; beagle; Oral; Feed; dose end: 52 week; group: systemic; systemic / clinical chemistry / bilirubin / total bilirubin + systemic / hematology / erythrocyte (rbc) count differential / erythrocyte (…
# [6] = system: rat; conditions: Subchronic oral toxicity in rodents, sprague dawley, Feed, dose end: 13 week, group: systemic
# [7] = system: mouse; conditions: Subchronic oral toxicity in rodents, cd1, Feed, dose end: 90 day, group: systemic
# [8] = system: rat; conditions: Combined chronic toxicity/carcinogenicity, sprague dawley, Oral, Feed, dose end: 24 month, group: systemic
# [9] = system: rat; conditions: Multigenerational reproductive toxicity study, sprague dawley, Oral, Feed, dose end: 2 generation
# [10] = system: mouse; conditions: Carcinogenicity, cd1, Oral, Feed, dose end: 18 month, group: systemic
# [11] = system: dog; conditions: Subchronic oral toxicity in nonrodent, beagle, Feed, dose end: 90 day, group: systemic
# [12] = systemic / in life observation / body weight / body weight gain + systemic / pathology microscopic / bone marrow / depletion + systemic / …
# [13] = systemic / in life observation / body weight / body weight gain + systemic / pathology microscopic / bone marrow / hyperplasia + systemic / …
# [14] = systemic / clinical chemistry / alkaline phosphatase (alp/alk) / alkaline phosphatase (alp/alk) + systemic / clinical chemistry / aspartate …
# [15] = systemic / hematology / monocytes / monocytes + systemic / in life observation / clinical signs / salivation
# [16] = systemic / hematology / erythrocyte (rbc) count differential / erythrocyte (rbc) + systemic / hematology / hemoglobin (hgb) / hemoglobin (…
# [17] = systemic / in life observation / body weight / body weight gain
# [18] = systemic / in life observation / body weight / body weight gain + systemic / clinical chemistry / alkaline phosphatase (alp/alk) / alkaline …
# [19] = systemic / hematology / erythrocyte (rbc) count differential / erythrocyte (rbc) + systemic / hematology / hematocrit (hct) / hematocrit (…
# [20] = group: offspring, developmental / offspring survival late / viability index / viability index
# [21] = group: parental, systemic / pathology microscopic / spleen / pigmentation
# [22] = group: parental, systemic / pathology microscopic / spleen / pigmentation + systemic / in life observation / body weight / body weight + systemic / in life …
# [23] = group: reproductive, reproductive / offspring survival early / birth index / live birth index
# [24] = systemic / in life observation / mortality / mortality
# [25] = systemic / hematology / heinz body / heinz body + systemic / hematology / hematocrit (hct) / hematocrit (hct) + systemic / hematology / …
# [26] = systemic / urinalysis / appearance and color / appearance and color
smiles,measurement,setting,value
O=C1O[C@H]([C@@H](O)CO)C(O)=C1O [L-Ascorbic acid],LEL,[1],7500 mg/kg/day
same,LOAEL,[1],7500 mg/kg/day
same,NEL,[1],3750 mg/kg/day
same,NOAEL,[1],3750 mg/kg/day
same,LOAEL,[2]; [12],5000 mg/kg/day
same,NOAEL,[2]; [12],2500 mg/kg/day
same,LEL,[2]; [13],1250 mg/kg/day
same,NEL,[2]; [13],< 1250 mg/kg/day
CO[C@@H]1COCC[C@@H]1[NH2+][C@@H]1CC[C@@](C(=O)N2CCc3ncc(C(F)(F)F)cc3C2)(C(C)C)C1.O=C([O-])CCC(=O)O [MK-812],LEL,[3],30 mg/kg/day
same,LOAEL,[3],> 30 mg/kg/day
same,NEL,[3],10 mg/kg/day
same,NOAEL,[3],≥ 30 mg/kg/day
same,LOAEL,[4]; [14],> 80 mg/kg/day
same,NOAEL,[4]; [14],≥ 80 mg/kg/day
same,LEL,[4]; [15],5 mg/kg/day
same,NEL,[4]; [15],< 5 mg/kg/day
CCc1ccc(C(=O)NN(C(=O)c2cc(C)cc(C)c2)C(C)(C)C)cc1 [Tebufenozide],LEL,[5],7 mg/kg/day
same,LOAEL,[5],7 mg/kg/day
same,NEL,[5],1.6 mg/kg/day
same,NOAEL,[5],1.6 mg/kg/day
same,LOAEL,[6]; [16],133 mg/kg/day
same,NEL,[6]; [16],1.3 mg/kg/day
same,NOAEL,[6]; [16],13.1 mg/kg/day
same,LEL,[6]; systemic / organ weight / testes / relative to body weight,13.1 mg/kg/day
same,LEL,[7]; [17],35.3 mg/kg/day
same,LOAEL,[7]; [17],35.3 mg/kg/day
same,NEL,[7]; [18],3.4 mg/kg/day
same,NOAEL,[7]; [18],3.4 mg/kg/day
same,LOAEL,[8]; [19],48 mg/kg/day
same,NOAEL,[8]; [19],5 mg/kg/day
same,LEL,[8]; systemic / pathology gross / ovary / cyst,6 mg/kg/day
same,NEL,[8]; systemic / pathology gross / ovary / cyst + systemic / organ weight / adrenal gland / relative to body weight + systemic / organ weight / …,0.6 mg/kg/day
same,LEL,[9]; [20],155 mg/kg/day
same,LOAEL,[9]; [20],> 155 mg/kg/day
same,NEL,[9]; [20],11.5 mg/kg/day
same,NOAEL,[9]; [20],≥ 155 mg/kg/day
same,LEL,[9]; [21],11.5 mg/kg/day
same,LOAEL,[9]; [21],11.5 mg/kg/day
same,NEL,[9]; [22],0.8 mg/kg/day
same,NOAEL,[9]; [22],0.8 mg/kg/day
same,LEL,[9]; [23],155 mg/kg/day
same,LOAEL,[9]; [23],155 mg/kg/day
same,NEL,[9]; [23],11.5 mg/kg/day
same,NOAEL,[9]; [23],11.5 mg/kg/day
same,LEL,[10]; [24],0.8 mg/kg/day
same,NEL,[10]; [24],< 0.8 mg/kg/day
same,LOAEL,[10]; systemic / in life observation / mortality / mortality + systemic / pathology microscopic / spleen / pigmentation + systemic / organ weight…,78 mg/kg/day
same,NOAEL,[10]; systemic / pathology microscopic / spleen / pigmentation + systemic / organ weight / spleen / absolute,7.8 mg/kg/day
same,LOAEL,[11]; [25],20.1 mg/kg/day
same,NOAEL,[11]; [25],2.1 mg/kg/day
same,LEL,[11]; [26],2.1 mg/kg/day
same,NEL,[11]; [26],< 2.1 mg/kg/day

# From EPA's ToxRefDB 2
